According to patent US10617677B2, “Nuclear transport modulators and uses thereof” (Biogen MA Inc., priority 2012, dated 2020):
Entries after “also recorded” stand apart in the source; their conditions may differ.

Columns and labels:
[1] = system: MOG-induced EAE; assay: MOG-induced experimental autoimmune encephalomyelitis (EAE) murine model; type: in vivo, mice; settings: 7.5 mg/kg p.o. starting on study day 11, Monday, Wednesday and Friday
Protocol: The EAE Model is an accepted model for the study of human CNS demyelinating diseases such as multiple sclerosis. The effects of Compound 1 were investigated in MOG-induced in an EAE murine model in female C57B1/6J mice. […] Compound 1 at 7.5 mg/kg was administered orally starting from day 11 (disease onset) on Monday, Wednesday and Friday for 3 consecutive weeks. The disease was induced by the single intradermal injection of MOG emulsified in Complete Freund's Adjuvant (CFA) on study day 0, followed by intraperitoneal supplemental immunostimulation with pertussis toxin (PT) carried out on study day 0, and again 48 hours later on study day 2.

[2] = system: inflammation-related CRM1 cargo proteins; assay: Immunofluorescence of nuclear localization of CRM1 cargos in HeLa and THP-1 cells; type: cell-based, human; settings: 1-10 μM Compound 1 + 20 ng/mL TNFα, 4-24 h
Protocol: HeLa and THP-1 (human acute monocytic leukemia) cells were treated with inflammation inducing factor, TNFα, alone or in combination with 1-10 μM of Compound 1 for 4-24 h, and then were analyzed by immunofluorescence (IF) for the nuclear localization of inflammation-related CRM1 cargo proteins: IκB, Nrf2, HMGB1, FoxP3, FOXO1a, RxRα, PPARγ and NFκB (p65 subunit).
For the detection of IkB, Nrf2, RxRα and PPARγ localization, cells were pre-incubated with 10 μM Compound 1 for 30 minutes, followed by incubation with 20 ng/mL TNFα for 4 hrs in serum free media. […] IκB was detected by the primary rabbit monoclonal (E130) antibody from Abcam (ab32518); Nrf2 was detected by the primary rabbit polyclonal antibody from Santa Cruz (sc722); RxR alpha was detected by the primary rabbit polyclonal antibody from Santa Cruz (sc553); PPAR gamma was detected by the primary rabbit monoclonal […] antibody from Cell Signaling (#2443); Foxo1A was detected by the primary rabbit monoclonal [C29H4] antibody from Cell Signaling (#2880); HMGB1 was detected by the primary rabbit polyoclonal antibody from Abcam (ab18256); FoxP3 was detected by the primary rabbit polyclonal antibody from Abcam (ab10563); NFκB-p65 was detected by the primary rabbit monoclonal [C22B4] antibody from Cell Signaling (#4764). […]

[3] = system: A549 xenograft tumors; assay: A549 lung carcinoma xenograft in SCID mice; type: in vivo
Protocol: The A549 cell line was derived from explant culture of alveolar carcinoma tissue from a person. The cells were grown in Ham's F12-K tissue culture media with 10% fetal calf serum and 1% penicillin/streptomycin. Cells were routinely trypsinized and passaged 1:10. Thirty-two (32) female CB-17 SCID mice (Charles River Labs strain code 236), aged 5 to 6 weeks were used with a mean pre-treatment body weight of 16.3 grams. Mice were divided into four (4) groups of eight (8) prior to the initiation of treatment based on tumor volume. On the day of implantation, cells were washed in PBS, trypsinized and resuspended in complete media to a density of 2×10^7 cells/mL prior to being mixed with an equal volume of Matrigel. This mixture was then inoculated subcutaneously into mice in a volume of 0.1 mL using a 23G needle.
Animal weights and condition were recorded daily, and tumors were measured on Mondays, Wednesdays and Fridays with micro-calipers, and tumor volume was calculated as (length×width×width)/2.
Animals with weight loss of more than 20% of their starting weight were euthanized. Mice with weight loss of more than 15% of their starting weight were not treated again until weight loss recovered to less than 5% of their starting weight. Any animals with a tumor volume of more than 1500 mm^3 were euthanized.
Dosing solutions were prepared fresh on each day of dosing. Compound 2 was supplied as a lyophilized powder containing 69.61% Compound 2 with the balance made up of Pluronic F-68 and PVP K29/32. This was prepared by dissolving the lyophilized powder in sterile water. Cisplatin was dissolved at 5 mg/mL in DMSO and diluted 1:10 in sterile water for injection. All test articles were administered in a volume of 0.1 mL/10 g body weight.
Statistical differences between treatment groups were determined using Mann-Whitney Rank Sum or ANOVA tests with a critical value of 0.05.

[4] = system: diet-induced obesity; assay: Diet-induced obesity (DIO) model in Sprague-Dawley rats; type: in vivo
Protocol: Male Sprague-Dawley rats of age 2 months were placed on a high fat diet (Research Diets Inc., product code D12492, 60% kcal % fat) for 3 months. A group of age-matched rats were fed normal lab chow (LabDiet 5001, ˜13% kcal % fat), these animals served as controls for DIO group.
At age 4 months, and 2 months into placement of high fat diet, all rats were allocated into 3 groups of N=7 based on equivalent body weights and food intakes. Body weights and food and water intakes were measured at approximately the same time each day. On treatment days, dosing was at approximately 2 hours before lights off.
The DIO control group was treated with vehicle (oral, 10 mL/kg dose volume; 0.5% Pluronic F68 and 0.5% PVP K29/32 in water) on each weekday. The Compound 2 1.5 mg/kg group was orally treated on each weekday throughout the treatment phase (dose 10 mL/kg dose volume; 0.5% Pluronic F68 and 0.5% PVP K29/32 in water). The Compound 2 3 mg/kg group (10 mL/kg dose volume; 0.5% Pluronic F68 and 0.5% PVP K29/32 in water) was orally treated initially once daily on each weekday for week 1, then twice weekly (Monday, Wednesday) for week 2. During treatment weeks 3 and 4, Compound 2 3 mg/kg treatment continued twice weekly, except dosing was on Monday and Thursday.
Prior to the treatment phase, 3 days baseline data were collected. The treatment phase was for 4 weeks. A washout phase of 10 days was also included.
Compound 2 was supplied in powder form. […] Active percentage was adjusted using BEW of 1.437 and prepared by dissolving into 0.5% w/v Pluronic F-68 and 0.5% w/v PVP K-29-32 vehicle solution. The vehicle solution was prepared on a weekly basis while Compound 2 was prepared fresh every 2 days and stored at +4° C. Animals were dosed at a volume of 10 mL/kg. Individual doses were calculated based on the most recent body weights to provide the proper mg/kg/day dosage.

[5] = 1.5-3 mg/kg oral, 28 day treatment period

CC(C)(C)C(=O)NNC(=O)/C=C\n1cnc(-c2cc(C(F)(F)F)cc(C(F)(F)F)c2)n1 [Compound 1, (Z)-3-(3-(3,5-bis(trifluoromethyl)phenyl)-1H-1,2,4-triazol-1-yl)-N′-pivaloylacrylohydrazide]
disease (clinical) score and severity [1]: significantly decreased disease score and severity; also recorded: decrease in disease score and severity
nuclear localization of IκB, Nrf2, HMGB1, FoxP3, FOXO1a, RxRα, PPARγ and NFκB [2]: nuclear localization of the above cargos, even in the presence of TNFα

O=C(/C=C\n1cnc(-c2cc(C(F)(F)F)cc(C(F)(F)F)c2)n1)NNC(=O)CN1CCOCC1 [Compound 2, (Z)-3-(3-(3,5-bis(trifluoromethyl)phenyl)-1H-1,2,4-triazol-1-yl)-N′-(2-morpholinoacetyl)acrylohydrazide]
tumor growth versus vehicle control group (mean AUC of tumor volume, one-way ANOVA) ([3]; Compound 2 5 or 10 mg/kg PO, cisplatin 5 mg/kg IP): antitumor effect at both 5 mg/kg and 10 mg/kg doses in a dose dependent manner
mean tumor volume ([3]; Day 1, 5 mg/kg PO MWF): 101 mm^3
mean tumor volume ([3]; Day 1, 10 mg/kg PO MWF): 101 mm^3
mean tumor volume ([3]; Day 29, 5 mg/kg PO MWF): 1231 mm^3
mean tumor volume ([3]; Day 29, 10 mg/kg PO MWF): 686 mm^3
body weight compared to DIO control group [4, 5]: dose-related decrease
daily food intake compared to DIO control group [4, 5]: dose-related decrease; also recorded: decreases daily food intake in a dose dependent manner
water intake [4, 5]: significantly increased water intake
body weight gain (percentage of body weight change from study day 3) compared to DIO controls ([4]; 1.5 and 3 mg/kg, treatment days 7 and 14): significant reduction in weight gain; also recorded: affects body weight gain at both 1.5 and 3 mg/kg doses
body weight compared to DIO controls ([4]; washout phase): remained lower than DIO controls
